Reference: patent publication US8946238B2, “Pyrazolo[1,5-A]pyrimidines as antiviral agents” (Gilead Sciences, Inc., priority 2011, dated 2015)

Tested on: RSV strain A2
Assay: RSV antiviral cytoprotection assay in Hep2 cells (RSV-induced cytopathic effect, Cell TiterGlo)
Assay type: cell-based, Respiratory Syncytial Virus (RSV)
Settings: 0.5 μM compound; RSV A2-infected Hep2 cells; % inhibition calculated from 4-parameter dose response curve, normalized to 0% and 100%; 0.5 µM
Method: Antiviral activity against RSV was determined using an in vitro cytoprotection assay in Hep2 cells. […] The method used was similar to methods previously described in published literature (Chapman et al., Antimicrob Agents Chemother. 2007, 51(9):3346-53.)
Hep2 cells were obtained from ATCC (Manassas, VI) and maintained in MEM media supplemented with 10% fetal bovine serum and penicillin/streptomycin. Cells were passaged twice a week and kept at subconfluent stage. Commercial stock of RSV strain A2 (Advanced Biotechnologies, Columbia, Md.) was titered before compound testing to determine the appropriate dilution of the virus stock that generated desirable cytopathic effect in Hep2 cells.
For antiviral tests, Hep2 cells were seeded into 96-well plates 24 hours before the assay at a density of 3,000 cells/well. On a separate 96 well plate, compounds to be tested were serially diluted in cell culture media. Eight concentrations in 3-fold serial dilution increments were prepared for each tested compound and 100 uL/well of each dilution was transferred in duplicate onto plates with seeded Hep2 cells. Subsequently, appropriate dilution of virus stock previously determined by titration was prepared in cell culture media and 100 uL/well was added to test plates containing cells and serially diluted compounds. Each plate included three wells of infected untreated cells and three wells of uninfected cells that served as 0% and 100% virus inhibition control, respectively. Following the infection with RSV, testing plates were incubated for 4 days in a tissue culture incubator. After the incubation, RSV-induced cytopathic effect was determined using a Cell TiterGlo reagent (Promega, Madison, Wis.) followed by a luminescence read-out. The percentage inhibition was calculated for each tested concentration relative to the 0% and 100% inhibition controls and the EC50 value for each compound was determined by non-linear regression as a concentration inhibiting the RSV-induced cytopathic effect by 50%. Ribavirin (purchased from Sigma, St. Louis, Mo.) was used as a positive control for antiviral activity.
Compounds were also tested for antiviral activity against RSV in Hep2 cells using a 384 well format. Compounds were diluted in DMSO using a 10-step serial dilution in 3-fold increments via automation in 4 adjacent replicates each. Eight compounds were tested per dilution plate. 0.4 uL of diluted compounds were then stamped via Biomek into 384-well plates (Nunc 142761 or 164730 w/lid 264616) containing 20 μL of media (Mediatech Inc. MEM supplemented with Glutamine, 10% FBS and Pen/Strep). DMSO and a suitable positive control compound, such as 80 μM GS-329467 or 10 μM 427346 was used for the 100% and 0% cell killing controls, respectively.
Hep2 cells (1.0×10^5 cells/ml) were prepared as above in batch to at least 40 mls excess of the number of sample plates (8 mls cell mix per plate) and infected with vendor supplied (ABI) RSV strain A2 to arrive at an MOI of 1:1000 (virus:cell #) or 1:3000 (vol virus: cell vol). Immediately after addition of virus, the RSV infected Hep2 cell suspension was added to each stamped 384-well plate at 20 μl per well using a uFlow dispenser, giving a final volume of 40 μL/well, each with 2000 infected cells. The plates were then incubated for 5 days at 37° C. and 5% CO2. Following incubation, the plates were equilibrated to room temperature in a biosafety cabinet hood for 1.5 hrs and 40 μL of Cell-Titer Glo viability reagent (Promega) was added to each well via uFlow. Following a10-20 minute incubation, the plates were read using an EnVision or Victor Luminescence plate reader (Perkin-Elmer). The data was then uploaded and analyzed on the Bioinformatics portal under the RSV Cell Infectivity and 8-plate EC50-Hep2-384 or 8-plate EC50-Hep2-Envision protocols. […]

With Cc1cccnc1C(=O)N1CCCC[C@H]1c1cc2nc(N3C[C@@H](C#N)[C@@H](O)C3)c(C)cn2n1 [Compound 179] the “Percent inhibition at 0.5 μM” value was 93%.

Same assay, conditions: human respiratory syncytial virus, HEp-2, 0.5 μM compound; RSV A2-infected Hep2 cells; % inhibition calculated from 4-parameter dose response curve, normalized to 0% and 100%; read-out: Percent inhibition at 0.5 μM

Compared with Cc1cn2nc([C@@H]3CCCCN3C(=O)c3cc(Cl)ccc3NS(C)(=O)=O)cc2nc1NCC1CCCNC1 (stereo partly drawn) [Compound 15], Cc1cn2nc([C@@H]3CCCCN3C(=O)c3cc(Cl)ccc3NS(C)(=O)=O)cc2nc1NC(C)CN (stereo partly drawn) [Compound 5] is higher in inhibition at 0.5 µM: 82% for the first, 100% for the second.

First: Cc1cn2nc([C@@H]3CCCCN3C(=O)c3cccc(F)n3)cc2nc1N1C[C@@H](C#N)[C@@H](O)C1 [Compound 160]
Second: Cc1cn2nc([C@@H]3CCCCN3C(=O)c3ccc4cccc(F)c4n3)cc2nc1N1C[C@@H](C#N)[C@@H](O)C1 [Compound 133]
The inhibition at 0.5 µM of the first is higher: 71% for the first, 56% for the second.

First: Cc1ccc(C(=O)N2CCCC[C@H]2c2cc3nc(N4C[C@@H](C#N)[C@@H](O)C4)c(C)cn3n2)c(Cl)c1 [Compound 131]
Second: Cc1cn2nc([C@@H]3CCCCN3C(=O)c3cccc(F)c3Cl)cc2nc1N1C[C@@H](C#N)[C@@H](O)C1 [Compound 116]
The inhibition at 0.5 µM of the first is lower: 96% for the first, 100% for the second.

Going from Cc1cn2nc([C@@H]3CCCCN3C(=O)c3ncccc3Cl)cc2nc1N1C[C@@H](C#N)[C@@H](O)C1 [Compound 115] to Cc1cn2nc([C@@H]3CCCCN3C(=O)c3cc(I)ccn3)cc2nc1N1C[C@@H](C#N)[C@@H](O)C1 [Compound 161], the inhibition at 0.5 µM falls from 98% to 61%.

Compared with COc1ccc(C(=O)N2CCCC[C@H]2c2cc3nc(N4C[C@@H](C#N)[C@@H](O)C4)c(C)cn3n2)c(F)c1 [Compound 126], Cc1cn2nc([C@@H]3CCCCN3C(=O)c3ccc(C#N)cc3F)cc2nc1N1C[C@@H](C#N)[C@@H](O)C1 [Compound 117] is lower in inhibition at 0.5 µM: 82% for the first, 46% for the second.

Compared with Cc1noc(-c2ccccc2C(=O)N2CCCC[C@H]2c2cc3nc(N4CC[C@H](N)C4)c(C)cn3n2)n1 [Compound 47], Cc1cn2nc([C@@H]3CCCCN3C(=O)c3cccc(F)c3C)cc2nc1N1CC[C@H](N)C1 [Compound 25] is higher in inhibition at 0.5 µM: 90% for the first, 100% for the second.

Going from Cc1cn2nc([C@@H]3CCCCN3C(=O)c3cccc4ccnn34)cc2nc1N1CC[C@H](N)C1 [Compound 54] to Cc1cn2nc([C@@H]3CCCCN3C(=O)c3ncccc3F)cc2nc1N1CC[C@H](N)C1 [Compound 71], the inhibition at 0.5 µM falls from 100% to 98%.

First: Cc1cnc2c(C(=O)N3CCCC[C@H]3c3cc4nc(N5CC[C@H](N)C5)c(C)cn4n3)c(Cl)ccc2c1 [Compound 95]
Second: Cc1cn2nc([C@@H]3CCCCN3C(=O)c3nc(Cl)ccc3Cl)cc2nc1N1CC[C@H](N)C1 [Compound 74]
The inhibition at 0.5 µM of the first is lower: 21% for the first, 100% for the second.

Compared with Cc1cn2nc([C@@H]3CCCCN3C(=O)c3c(F)ccc(C)c3F)cc2nc1N1C[C@@H](C#N)[C@@H](O)C1 [Compound 124], Cc1cn2nc([C@@H]3CCCCN3C(=O)c3c(F)cccc3F)cc2nc1N1C[C@@H](C#N)[C@@H](O)C1 [Compound 157] is lower in inhibition at 0.5 µM: 100% for the first, 98% for the second.

Compared with Cc1cn2nc([C@@H]3CCCCN3C(=O)c3ccc(C#N)cc3F)cc2nc1N1CC[C@H](N)C1 [Compound 32], Cc1cn2nc([C@@H]3CCCCN3C(=O)c3ccc(F)cc3F)cc2nc1N1CC[C@H](N)C1 [Compound 73] is higher in inhibition at 0.5 µM: 79% for the first, 99% for the second.

Going from Cc1cn2nc([C@@H]3CCCCN3C(=O)c3cccc(-c4ccccc4)n3)cc2nc1N1CC[C@H](N)C1 [Compound 80] to COc1ccc2ccccc2c1C(=O)N1CCCC[C@H]1c1cc2nc(N3CC[C@H](N)C3)c(C)cn2n1 [Compound 97], the inhibition at 0.5 µM rises from 14% to 100%.

Going from Cc1cn2nc([C@@H]3CCCCN3C(=O)c3cccc4n[nH]cc34)cc2nc1N1CC[C@H](N)C1 [Compound 108] to Cc1cn2nc([C@@H]3CCCCN3C(=O)c3cccc(C)c3C)cc2nc1N1CC[C@H](N)C1 [Compound 87], the inhibition at 0.5 µM rises from 99% to 100%.

Going from Cc1cn2nc([C@@H]3CCCCN3C(=O)c3ccc4ncccc4c3)cc2nc1N1CC[C@H](N)C1 [Compound 68] to Cc1cn2nc([C@@H]3CCCCN3C(=O)c3cccc4cn[nH]c34)cc2nc1N1CC[C@H](N)C1 [Compound 38], the inhibition at 0.5 µM rises from 37% to 100%.

COc1cc(C)c(C(=O)N2CCCC[C@H]2c2cc3nc(N4C[C@@H](C#N)[C@@H](O)C4)c(C)cn3n2)cc1C [Compound 167] and Cc1cc(F)c(F)cc1C(=O)N1CCCC[C@H]1c1cc2nc(N3C[C@@H](C#N)[C@@H](O)C3)c(C)cn2n1 [Compound 153] are the same in inhibition at 0.5 µM: 100% for the first, 100% for the second.

Compared with Cc1cn2nc([C@@H]3CCCCN3C(=O)c3ccccc3-c3ccccc3)cc2nc1N1C[C@@H](C#N)[C@@H](O)C1 [Compound 180], Cc1cn2nc([C@@H]3CCCCN3C(=O)c3cccc(F)c3C)cc2nc1N1C[C@@H](C#N)[C@@H](O)C1 [Compound 172] is higher in inhibition at 0.5 µM: 94% for the first, 100% for the second.

Going from Cc1cn2nc([C@@H]3CCCCN3C(=O)c3cc(Cl)ccc3NS(C)(=O)=O)cc2nc1N1C[C@@H]2C[C@H]1CN2 [Compound 18] to Cc1cn2nc([C@@H]3CCCCN3C(=O)c3cc(Cl)ccc3NS(C)(=O)=O)cc2nc1N1C[C@H](N)C[C@@H]1C(=O)O [Compound 14], the inhibition at 0.5 µM rises from 70% to 81%.

Going from Cc1cc(C)n2c(C(=O)N3CCCC[C@H]3c3cc4nc(N5CC[C@H](N)C5)c(C)cn4n3)nnc2n1 [Compound 55] to Cc1cn2nc([C@@H]3CCCCN3C(=O)c3cc(F)cc4nc(C)c(C)nc34)cc2nc1N1CC[C@H](N)C1 [Compound 62], the inhibition at 0.5 µM rises from 5% to 11%.

Compared with Cc1cn2nc([C@@H]3CCCCN3C(=O)c3cccc4n[nH]cc34)cc2nc1N1C[C@@H](C#N)[C@@H](O)C1 [Compound 175], Cc1ccc(N2CCCS2(=O)=O)c(C(=O)N2CCCC[C@H]2c2cc3nc(N4C[C@@H](C#N)[C@@H](O)C4)c(C)cn3n2)c1 [Compound 197] is higher in inhibition at 0.5 µM: 91% for the first, 100% for the second.

Compared with Cc1cn2nc([C@@H]3CCCCN3C(=O)c3ccc(-n4cncn4)cc3Cl)cc2nc1N1CC[C@H](N)C1 [Compound 102], Cc1cn2nc([C@@H]3CCCCN3C(=O)c3cc(Cl)ccc3C(F)(F)F)cc2nc1N1CC[C@H](N)C1 [Compound 106] is higher in inhibition at 0.5 µM: 16% for the first, 100% for the second.

Cc1cn2nc([C@@H]3CCCCN3C(=O)c3cc(F)cc4c3OCOC4)cc2nc1N1C[C@@H](C#N)[C@@H](O)C1 [Compound 130] and Cc1cn2nc([C@@H]3CCCCN3C(=O)c3csc4c3CCCC4)cc2nc1N1C[C@@H](C#N)[C@@H](O)C1 [Compound 183] are the same in inhibition at 0.5 µM: 100% for the first, 100% for the second.

Compared with Cc1cn2nc([C@@H]3CCCCN3C(=O)c3cc(Cl)ccc3NS(C)(=O)=O)cc2nc1N1CCN[C@H](Cc2ccccc2)C1 [Compound 17], Cc1cn2nc([C@@H]3CCCCN3C(=O)c3cc(Cl)ccc3NS(C)(=O)=O)cc2nc1N1CCN[C@@H](COCc2ccccc2)C1 [Compound 13] is higher in inhibition at 0.5 µM: 70% for the first, 82% for the second.

Compared with Cc1cn2nc([C@@H]3CCCCN3C(=O)c3cc(Cl)ccc3NS(C)(=O)=O)cc2nc1N1C[C@@H](C#N)[C@@H](OC(=O)[C@H](N)C(C)C)C1 [Compound 204], Cc1cn2nc([C@@H]3CCCCN3C(=O)c3ccc(C)c(F)c3F)cc2nc1N1CC[C@H](N)C1 [Compound 33] is lower in inhibition at 0.5 µM: 100% for the first, 99% for the second.

Cc1cc(C(=O)N2CCCC[C@H]2c2cc3nc(N4CC[C@H](N)C4)c(C)cn3n2)c2[nH]ncc2c1 [Compound 64] and Cc1cn2nc([C@@H]3CCCCN3C(=O)c3cc(Cl)cc(Cl)n3)cc2nc1N1CC[C@H](N)C1 [Compound 100] are the same in inhibition at 0.5 µM: 100% for the first, 100% for the second.

For COc1cc2c(cc1C(=O)N1CCCC[C@H]1c1cc3nc(N4CC[C@H](N)C4)c(C)cn3n1)CCC2 [Compound 51], the inhibition at 0.5 µM was 100%.
